Source: patent publication US4610994A, “1,2,3-triazole anticonvulsant drugs” (priority 1984, dated 1986)
Several values for one entry are separate records, joined by “and”; a condition that tells them apart may be missing. Equal values may be shown once. Entries after “also recorded” stand apart in the source; their conditions may differ. Read-outs that look alike come from different tables or passages of the source.

Legend:
[1] = tested on: maximal electro-shock seizure (MES) and subcutaneous pentylenetetrazole (Metrazole) seizure threshold (scMet); assay: Phase I anticonvulsant screening (MES test and scMet test); type: in vivo, mouse; details: at effective dose levels (Class I) or 300 mg/kg (8, 13)
[2] = tested on: subcutaneous Bicuculline seizures; assay: subcutaneous Bicuculline Seizure Threshold Test (sc Bic) in mice; type: in vivo, mice (male albino, CF No. 1); details: mice i.p.; Compound 10 up to 300 mg/kg
Description: (§3) All animals were allowed free access to both food (S/L Custom Lab Diet-7) and water, except when they were removed from their cages for the experimental procedure.
(§4) The drugs were administered either orally or intraperitoneally in a volume of 0.01 ml/g body weight in mice and 0.04 ml/10 g in rats. All tests were conducted at the previously determined time of peak drug effect.
(§5) The profile of anticonvulsant activity for each substance was established by five tests: one electrical and four chemical. The electrical test employed was the maximal electroshock seizure pattern test. […] Except for the sc Strych Test, these tests measure the ability of anticonvulsants to afford complete protection against threshold seizures induced by the subcutaneous injection of the CD97 of the convulsant agent.
(§6) All convulsants were administered subcutaneously into a loose fold of skin on the back of the neck in a volume of 0.01 ml/g body weight in mice; Metrazol was injected in a volume of 0.02 ml/10 g body weight in rats. The convulsant drugs were administered at the previously determined time of peak anticonvulsant action of the drug under study. […] Except for strychnine, absence of a five-second episode of clonic spasms (threshold seizure) was taken as protection. In the case of strychnine, complete abolition of the hindleg tonic extension was taken as protection.

[3] = tested on: subcutaneous Picrotoxin seizures; assay: subcutaneous Picrotoxin Seizure Threshold Test (sc Pic) in mice; type: in vivo, mice (male albino, CF No. 1); details: mice i.p.; Compound 10 up to 300 mg/kg
Description: as §3, §4, §5, §6

[4] = tested on: subcutaneous Strychnine seizures; type: in vivo, mice (male albino, CF No. 1); details: mice i.p.; Compound 10 up to 300 mg/kg
Description: as §3, §4, §5, §6

[5] = loss of righting reflex (HD50) in mice i.p.; parameters: species or system mice (male albino, CF No. 1); details: mouse, in vivo, ip
Description: (§7) The profile of toxicity for each test drug was established by the following procedures: Firstly, the minimal neurotoxic dose (TD50) was determined by the rotorod procedure at the time of peak neurotoxic effect. When a normal mouse is placed on a knurled rod one inch in diameter rotating at a speed of six rpm it can maintain its equilibrium for long periods of time. Neurological deficit is indicated by inability of the mouse to maintain its equilibrium for one minute in each of three trials on this rotating rod. […] The HD50 represents the median dose at which 50% of animals lose their righting reflex.

[6] = five-day oral LD3 in rats; type: in vivo
Description: (§1) Phase VII studies of Compound 10 included five-day LD3, five-day tolerance studies, and effect of chronic administration on the liver microsomal enzyme system. The five-day oral LD3 of Compound 10 is <300 mg/kg in male rats and >300 mg/kg in female rats.
(§2) Thus, the estimated five-day LD3 for Compound 10 is <300 mg/kg in male rats and >300 but <1000 mg/kg in female rats.

[7] = tested on: maximal electroshock seizures; assay: five-day tolerance study in rats (MES test); type: in vivo
Description: as §1, §2

hexobarbital sleep time = hexobarbital sleep time after chronic administration in rats; type: in vivo
Description: as §1

cytochrome P-450 = assay: effect of chronic administration on liver microsomal cytochrome P-450; type: in vivo, rats
Description: as §1, §2

[8] = tested on: p-nitroanisole O-demethylase; assay: effect of chronic administration on liver p-nitroanisole O-demethylase; type: in vivo, rats
Description: as §1, §2

cytochrome C reductase = assay: effect of chronic administration on liver cytochrome C reductase; type: in vivo, rats
Description: as §1, §2

[9] = oral absorption in mice from oral/i.p. ratios; type: in vivo
Text: The extent of oral absorption can be determined from the ratio of the oral ED50/i.p. […] The oral TD50/i.p. TD50 and oral ED50/i.p.

in vivo [10] = details: mouse, po
Description: as §3, §4, §5

in vivo [11] = details: mouse
Description: as §3, §4, §5, §6

in vivo [12] = details: mouse; remark: listed apart in the source
Description: as §3, §4
(§8) The profile of toxicity for each test drug was established by the following procedures: Firstly, the minimal neurotoxic dose (TD50) was determined by the rotorod procedure at the time of peak neurotoxic effect. When a normal mouse is placed on a knurled rod one inch in diameter rotating at a speed of six rpm it can maintain its equilibrium for long periods of time. Neurological deficit is indicated by inability of the mouse to maintain its equilibrium for one minute in each of three trials on this rotating rod. Neurological deficit in rats is indicated by ataxia, loss of placing response and muscle tone.

in vivo [13] = details: mouse, ip
[14] = 24-hour lethality (LD50) in mice i.p.
[15] = tested on: maximal electroshock seizures; assay: maximal electroshock seizure (MES) pattern test in mice; details: for ED97 / Safety ratio (TD3/ED97): MES
Description: as §3, §4, §5

[16] = maximal electroshock seizure (MES) pattern test in rats; details: rat, in vivo, po, Safety ratio (TD3/ED97), rats, MES
Description: as §3, §4, §5

[17] = tested on: maximal electroshock seizures; assay: as above
Description: as §3, §4, §5

[18] = tested on: subcutaneous Metrazol seizures; assay: subcutaneous Metrazol Seizure Threshold Test (sc Met) in mice; details: for ED97: sc Met
Description: as §3, §4, §5, §6

[19] = tested on: subcutaneous Metrazol seizures; assay: subcutaneous Metrazol Seizure Threshold Test (sc Met) in rats
Description: as §3, §4, §5, §6

[20] = Phase III toxicity profile (overt signs and symptoms) in mice i.p.
Description: as §7

[21] = minimal neurotoxicity (ataxia, loss of placing response and muscle tone) in rats; details: for TD3: oral
Description: as §3, §4, §8

[22] = rats, acute (single dose) control group
[23] = mice, i.p., 95% confidence interval
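Throughout, for Rotorod TD50: mice on rotorod: neurological deficit scored when the animal cannot keep balance for 1 min in every one of three trials on a 1-inch knurled rod turning at 6 rpm.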
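Throughout, for Rotorod toxicity: mice on rotorod: neurological deficit scored when the animal cannot keep balance for 1 min in every one of three trials on a 1-inch knurled rod turning at 6 rpm.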
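Throughout, for TPE by the rotorod test: mice on rotorod: neurological deficit scored when the animal cannot keep balance for 1 min in every one of three trials on a 1-inch knurled rod turning at 6 rpm.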
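Throughout, for time of peak effect (TPE), rotorod toxicity test: mice on rotorod: neurological deficit scored when the animal cannot keep balance for 1 min in every one of three trials on a 1-inch knurled rod turning at 6 rpm.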

With `Clc1ccc(-n2nncc2-c2cccnc2)cc1` [Compound 10, 1-(para-chlorophenyl)-5-(3-pyridyl)-1H-1,2,3-triazole] the “signs of neurological deficit” value [1] was “do not exhibit significant signs of neurological deficit”, the “effectiveness by the sc Bic test” value [2] was “ineffectiveness; also recorded: ineffective in doses up to 300 mg/kg” and the “effectiveness by the sc Pic test” value [3] was “ineffectiveness; also recorded: ineffective in doses up to 300 mg/kg”. For the same molecule, the “effectiveness by the sc Strych test” value [4] was “ineffectiveness; also recorded: ineffective in doses up to 300 mg/kg”, the “HD50 (righting reflex)” value [5] was 525.98(473.77-564.48) mg/kg and the “time of peak toxicity (TPE), righting reflex” value [5] was 6 h. The TD50 ([5]; HD50 (righting reflex)) was 526 mg/kg, the “five-day oral LD3” value ([6]; male rats) was under 300 mg/kg and the “five-day oral LD3” value ([6]; rat, in vivo, po, 7200 min) was over 300 mg/kg. For the same molecule, the “toxicity, male vs female rats” value ([6]; rats, chronic) was “more toxic in male than in female rats”, the “MES test, animals protected” value ([7]; acute (single dose, 50 mg/kg) control group, 50 mg/kg) was 6 of 8 protected and 6 of 8 rats protected and the “MES test, animals protected” value ([7]; chronic-treated group, five daily doses of 50 mg/kg) was 1 of 8 protected. The “tolerance to the anticonvulsant effects” value ([7]; five days) was “significant tolerance occurs within this period of time”, the hexobarbital sleep time (hexobarbital sleep time; acute (single dose) control group) was 16.3 ± 1.2 min and the hexobarbital sleep time (hexobarbital sleep time; chronic-treated group) was 15.0 ± 2.0 min. For the same molecule, the “cytochrome P-450” value (cytochrome P-450; chronically treated rats) was 0.988±0.096 n moles/mg, the “cytochrome P-450” value (cytochrome P-450; [22]) was 0.720±0.054 n moles/mg and the “increase in liver cytochrome P-450” value (cytochrome P-450; rats, chronic vs acute) was 37%. The “p-nitroanisole O-demethylase” value ([8]; chronically treated rats) was 0.640±0.098 n moles/mg/min, the “p-nitroanisole O-demethylase” value [8, 22] was 0.261±0.035 n moles/mg/min and the “increase in p-nitroanisole O-demethylase” value ([8]; rats, chronic vs acute) was 145%. For the same molecule, the “cytochrome C reductase” value (cytochrome C reductase; chronically treated rats) was 219±24 n moles/mg/min, the “cytochrome C reductase” value (cytochrome C reductase; [22]) was 157±11 n moles/mg/min and the “increase in cytochrome C reductase” value (cytochrome C reductase; rats, chronic vs acute) was 40%. For the same molecule, the oral absorption [9] was “adequately absorbed in mice after oral administration”, the toxicity (300 mg/kg, four hours after administration) was “one of two animals” and the Rotorod toxicity (300 mg/kg, thirty minutes after administration) was “all four animals”. For the same molecule, the “time of peak effect (TPE), rotorod toxicity test” value (mice, i.p.) was 60 min, the TD3 (mice, i.p., MES) was 175 and the TD3 (mice, i.p., sc Met) was 175. The “Rotorod TD50” value [23] was 244.51(221.82-275.17) mg/kg and 244.51(222.82-275.17) mg/kg, the TD3 (mice, oral, MES) was 173 and the TD3 (mice, oral, sc Met) was 173. For the same molecule, the “TPE by the rotorod test” value (mice, p.o.) was “six”, the TD50 (mice, p.o., 95% confidence interval) was 729.08 (492.47-1009.17) mg/kg and the selectivity ratio (in vivo [10]) was 5.54. For the same molecule, the selectivity ratio (in vivo [11]; ip) was 9.07, the selectivity ratio (in vivo [11]; po) was 5.37 and the TD50 (in vivo [12]; ip) was 245 mg/kg. For the same molecule, the TD50 (in vivo [12]; po) was 729 mg/kg, the LD50 at 24 h (in vivo [13]) was 569 mg/kg and the LD50/HD50 ratio [14] was 1.08. The LD50/TD50 ratio [14] was 2.33, the “oral ED50/i.p. ED50 ratio, MES” value ([15]; mice) was 2.00 and the “toxicity of doses giving 97% protection, MES or sc Met test” value ([15]; mice and rats, oral) was “toxic doses are required to protect 97% of animals”. For the same molecule, the “time of peak effect (TPE), anticonvulsant tests” value ([15]; mice i.p., anticonvulsant tests (MES, sc Met)) was 30 min, the “mice protected in the MES test at nontoxic doses” value ([15]; mice, i.p.) was 97% and the “protective index (TD50/ED50) by the MES test” value ([15]; mice, i.p.) was 3.72. The ED97 ([15]; mice, i.p.) was 145, the “Safety ratio (TD3/ED97)” value ([15]; mice, i.p.) was 1.2 and the “MES ED50” value [15, 23] was 65.76 mg/kg and 65.76(51.82-83.19) mg/kg. For the same molecule, the ED97 ([15]; mice, oral) was 275, the “Safety ratio (TD3/ED97)” value ([15]; mice, oral) was 0.6 and the “MES ED50” value ([15]; mice, p.o.) was 131.67 mg/kg. The “potency relative to phenobarbital, MES test” value ([15]; mice, p.o.) was 1/6, the “potency relative to phenytoin, MES test” value ([15]; mice, p.o.) was 1/15 and the selectivity ratio [16] was 0.07. The ED97 ([17]; Rattus norvegicus, po) was 215 mg/kg, the ED50 ([17]; Rattus norvegicus, po, read-out: MES ED50) was 49.9 mg/kg and the “97% protection by the MES and sc Met tests in nontoxic doses” value ([17]; rats, oral) was “do not provide 97% protection”. The “TPE by the MES and sc Met tests” value ([17]; rats, p.o.) was “four”, the “oral ED50/i.p. ED50 ratio, sc Met” value ([18]; mice) was 5.03 and the “toxicity of doses giving 97% protection, sc Met test” value ([18]; mice, i.p.) was “toxic doses are required”. For the same molecule, the ED97 ([18]; mice, i.p.) was 900, the “sc Met ED50” value [18, 23] was 26.95 mg/kg and 26.95(9.89-55.08) mg/kg and the ED97 ([18]; mice, oral) was 980. The “sc Met ED50” value ([18]; mice, p.o.) was 135.67 mg/kg, the “potency by the sc Met test in mice relative to rats” value ([18]; oral administration) was “about 21/2” and the ED97 ([19]; oral, sc Met) was over 10000. For the same molecule, the “Safety ratio (TD3/ED97)” value ([19]; oral, sc Met) was 0.002, the “sc Met ED50” value ([19]; p.o.) was 329.18 mg/kg and the “Profile of acute toxicity, 1 x TD50” value ([20]; 1TD50) was “decreased motor activity, rotorod toxicity, ataxia, and decreased respiration; also recorded: normal after 24 hours; also recorded: normal at 24 hrs”. The “Profile of acute toxicity, 2 x TD50” value ([20]; 2TD50) was “cyanosis, muscle relaxation, and loss of righting reflex; also recorded: dead after 24 hours”, the “Profile of acute toxicity, 4 x TD50” value ([20]; 4TD50) was “displayed all the symptoms characteristic of those given 1TD50 and 2TD50's of the test drug; however, the symptoms were more intense; also recorded: dead 4 hours after drug administration and the other was dead at 24 hours” and the “neurotoxicity in rats relative to mice” value ([21]; oral administration) was “approximately 16 times”. For the same molecule, the TD50 ([21]; rat, in vivo, po) was 44.5 mg/kg, the TD3 ([21]; rats, MES) was 16 and the TD3 ([21]; rats, sc Met) was 16. The “TPE by the toxicity test” value ([21]; rats, p.o.) was “two” and the TD50 ([21]; rats, p.o., 95% confidence interval) was 44.48 (32.78-62.61) mg/kg.
